The structures appear in SMILES notation. pEC50: −log10 of the molar value.

For the experiment, the target named is T1, human somatostatin receptor subtype 2 (Homo sapiens, UniProt P30874).
T1 construct: expressed in transfected cells
As to the kind of experiment: cAMP functional assay for SSTR2 agonists. It counts as cell-based. As to conditions: inhibition of cAMP activities via human SST2 receptor (SSTR2), CHO-K1 cells; read-out: EC50. A digest of the protocol:
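CHO-K1 cells stably expressing human SSTR2 were treated for 20 min at 37 °C with compound plus NKH477 (added as 1.6 μM) in HBSS with IBMX. Intracellular cAMP was measured by HTRF against a standard curve. EC50 values came from concentration-response curves.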

T1 sequence (P30874 whole entry): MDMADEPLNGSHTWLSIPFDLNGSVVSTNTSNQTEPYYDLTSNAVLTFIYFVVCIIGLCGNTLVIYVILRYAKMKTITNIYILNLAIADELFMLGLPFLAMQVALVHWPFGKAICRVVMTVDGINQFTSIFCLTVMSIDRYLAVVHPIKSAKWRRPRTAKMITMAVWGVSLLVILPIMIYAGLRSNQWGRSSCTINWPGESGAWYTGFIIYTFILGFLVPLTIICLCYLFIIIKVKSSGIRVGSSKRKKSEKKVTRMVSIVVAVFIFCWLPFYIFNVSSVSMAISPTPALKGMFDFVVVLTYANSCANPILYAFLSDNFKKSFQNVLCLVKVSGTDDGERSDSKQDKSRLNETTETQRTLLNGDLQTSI

In the case of `Cc1cc(F)cc(-c2cnnc(-c3cc4cc(F)ccc4[nH]3)c2N2CCC(N)CC2)c1` [Compound 3-8, 1-[3-(5-fluoro-1H-indol-2-yl)-5-(3-fluoro-5-methylphenyl)pyridazin-4-yl]piperidin-4-amine], the pEC50 is > 8.00.

Regarding `COc1ccc2[nH]c(-c3nncc(-c4cc(C)cc(F)c4)c3N3CCC(N)CC3)cc2c1` [Compound 3-9, 1-[5-(3-fluoro-5-methylphenyl)-3-(5-methoxy-1H-indol-2-yl)pyridazin-4-yl]piperidin-4-amine], the pEC50 is > 8.00.

In the case of `COc1ccc2[nH]c(-c3nncc(-c4cc(C)cc(F)c4)c3N3CCC(N)CC3)nc2c1` [Compound 3-10, 1-[5-(3-fluoro-5-methylphenyl)-3-(5-methoxy-1H-1,3-benzodiazol-2-yl)pyridazin-4-yl]piperidin-4-amine], the pEC50 is > 8.00.

Turning to `Cc1cc(F)cc(-c2cnnc(-c3cc4ccc(C#N)cc4[nH]3)c2N2CCC(N)CC2)c1` [Compound 3-12, 2-[4-(4-aminopiperidin-1-yl)-5-(3-fluoro-5-methylphenyl)pyridazin-3-yl]-1H-indole-6-carbonitrile], the pEC50 was > 8.00.

Regarding `Cc1cc(F)cc(-c2cnnc(-c3nc4cc(F)ccc4[nH]3)c2N2CCC(N)CC2)c1` [Compound 3-13, 1-[3-(5-fluoro-1H-1,3-benzodiazol-2-yl)-5-(3-fluoro-5-methylphenyl)pyridazin-4-yl]piperidin-4-amine], the pEC50 is > 8.00.

As for `Cc1cc(F)cc(-c2cnnc(-c3[nH]c4cc(Cl)ccc4c3Cl)c2N2CCC(N)CC2)c1` [Compound 3-14, 1-[3-(3,6-dichloro-1H-indol-2-yl)-5-(3-fluoro-5-methylphenyl)pyridazin-4-yl]piperidin-4-amine], the pEC50 was > 8.00.

Turning to `Cc1cc(F)cc(-c2cnnc(-c3cc4ccc(-c5nn[nH]n5)cc4[nH]3)c2N2CCC(N)CC2)c1` [Compound 3-15, 1-[5-(3-fluoro-5-methylphenyl)-3-[6-(2H-1,2,3,4-tetrazol-5-yl)-1H-indol-2-yl]pyridazin-4-yl]piperidin-4-amine], the pEC50 is < 7.00.

With `Cc1cc(F)cc(-c2cnnc(-c3cc4ccc(C)cc4[nH]3)c2N2CCC(N)CC2)c1` [Compound 3-16, 1-[5-(3-fluoro-5-methylphenyl)-3-(6-methyl-1H-indol-2-yl)pyridazin-4-yl]piperidin-4-amine], the pEC50 is > 8.00.

`Cc1cc(F)cc(-c2cnnc(-c3cc4cc(C#N)ccc4[nH]3)c2N2CCC(N)CC2)c1` [Compound 3-17, 2-[4-(4-aminopiperidin-1-yl)-5-(3-fluoro-5-methylphenyl)pyridazin-3-yl]-1H-indole-5-carbonitrile]: the pEC50 was > 8.00.

For the compound `COC(=O)c1ccc2cc(-c3nncc(-c4cc(C)cc(F)c4)c3N3CCC(N)CC3)[nH]c2c1` [Compound 3-18, methyl 2-[4-(4-aminopiperidin-1-yl)-5-(3-fluoro-5-methylphenyl)pyridazin-3-yl]-1H-indole-6-carboxylate], the pEC50 was > 8.00.

For the compound `Cc1cc(F)cc(-c2cnnc(-c3cc4ccc(C(N)=O)cc4[nH]3)c2N2CCC(N)CC2)c1` [Compound 3-19, 2-[4-(4-aminopiperidin-1-yl)-5-(3-fluoro-5-methylphenyl)pyridazin-3-yl]-1H-indole-6-carboxamide], the pEC50 is > 8.00.

In the case of `CONC(=O)c1ccc2cc(-c3nncc(-c4cc(C)cc(F)c4)c3N3CCC(N)CC3)[nH]c2c1` [Compound 3-20, 2-[4-(4-aminopiperidin-1-yl)-5-(3-fluoro-5-methylphenyl)pyridazin-3-yl]-N-methoxy-1H-indole-6-carboxamide], the pEC50 was 7.00 to 8.00.

In the case of `COc1ccc2c(Cl)c(-c3nncc(-c4cc(C)cc(F)c4)c3N3CCC(N)CC3)[nH]c2c1` [Compound 3-21, 1-[3-(3-chloro-6-methoxy-1H-indol-2-yl)-5-(3-fluoro-5-methylphenyl)pyridazin-4-yl]piperidin-4-amine], the pEC50 was > 8.00.

Take `Cc1cc(F)cc(-c2cnnc(-c3nc4cc(C#N)ccc4[nH]3)c2N2CCC(N)CC2)c1` [Compound 3-22, 2-[4-(4-aminopiperidin-1-yl)-5-(3-fluoro-5-methylphenyl)pyridazin-3-yl]-1H-1,3-benzodiazole-5-carbonitrile]: the pEC50 was > 8.00.

Regarding `Cc1cc(F)cc(-c2cnnc(-c3cc4cccc(C#N)c4[nH]3)c2N2CCC(N)CC2)c1` [Compound 3-23, 2-[4-(4-aminopiperidin-1-yl)-5-(3-fluoro-5-methylphenyl)pyridazin-3-yl]-1H-indole-7-carbonitrile], the pEC50 was > 8.00.

For the compound `Cc1cc(F)cc(-c2cnnc(-c3[nH]c4cc(C#N)ccc4c3Cl)c2N2CCC(N)CC2)c1` [Compound 3-24, 2-[4-(4-aminopiperidin-1-yl)-5-(3-fluoro-5-methylphenyl)pyridazin-3-yl]-3-chloro-1H-indole-6-carbonitrile], the pEC50 was > 8.00.

On to `COc1ccc2c(C#N)c(-c3nncc(-c4cc(C)cc(F)c4)c3N3CCC(N)CC3)[nH]c2c1` [Compound 3-25, 2-[4-(4-aminopiperidin-1-yl)-5-(3-fluoro-5-methylphenyl)pyridazin-3-yl]-6-methoxy-1H-indole-3-carbonitrile], for which the pEC50 was > 8.00.

Turning to `Cc1cc(F)cc(-c2cnnc(-c3[nH]c4cc(C#N)ccc4c3C#N)c2N2CCC(N)CC2)c1` [Compound 3-26, 2-[4-(4-aminopiperidin-1-yl)-5-(3-fluoro-5-methylphenyl)pyridazin-3-yl]-1H-indole-3,6-dicarbonitrile], the pEC50 was > 8.00.

`CNc1ncc(-c2cc(C)cc(F)c2)c(N2CCC(NC)CC2)c1-c1nc2cc(Cl)ccc2[nH]1` [Compound 4-1, 3-(5-chloro-1H-1,3-benzodiazol-2-yl)-5-(3-fluoro-5-methylphenyl)-N-methyl-4-[4-(methylamino)piperidin-1-yl]pyridin-2-amine]: the pEC50 is > 8.00.

For `CNC1CCN(c2c(-c3cc(C)cc(F)c3)cnc(N)c2-c2nc3ccc(C#N)cc3[nH]2)CC1` [Compound 4-2, 2-[2-amino-5-(3-fluoro-5-methylphenyl)-4-[4-(methylamino)piperidin-1-yl]pyridin-3-yl]-1H-1,3-benzodiazole-6-carbonitrile], the pEC50 is > 8.00.

For the compound `CNC1CCN(c2c(-c3cc(C)cc(F)c3)cnc(N)c2-c2nc3cc(C#N)cc(F)c3[nH]2)CC1` [Compound 4-3, 2-[2-amino-5-(3-fluoro-5-methylphenyl)-4-[4-(methylamino)piperidin-1-yl]pyridin-3-yl]-7-fluoro-1H-1,3-benzodiazole-5-carbonitrile], the pEC50 is > 8.00.

For the compound `COc1cccc2nc(-c3c(N(C)C)ncc(-c4cc(C)cc(F)c4)c3N3CCC(N)CC3)[nH]c12` [Compound 4-4, 4-(4-aminopiperidin-1-yl)-5-(3-fluoro-5-methylphenyl)-3-(7-methoxy-1H-1,3-benzodiazol-2-yl)-N,N-dimethylpyridin-2-amine], the pEC50 is > 8.00.

Regarding `Cc1cc(F)cc(-c2cnc(N(C)C)c(-c3nc4cc(F)cc(F)c4[nH]3)c2N2CCC(N)CC2)c1` [Compound 4-5, 4-(4-aminopiperidin-1-yl)-3-(5,7-difluoro-1H-1,3-benzodiazol-2-yl)-5-(3-fluoro-5-methylphenyl)-N,N-dimethylpyridin-2-amine], the pEC50 is > 8.00.

Consider `COc1cc(F)cc2nc(-c3c(N4CC(F)C4)ncc(-c4cccc(F)c4)c3N3CCC(N)CC3)[nH]c12` [Compound 4-9, 1-[3-(5-fluoro-7-methoxy-1H-1,3-benzodiazol-2-yl)-2-(3-fluoroazetidin-1-yl)-5-(3-fluorophenyl)pyridin-4-yl]piperidin-4-amine], for which the pEC50 is > 8.00.

For `CNC1CCN(c2c(-c3cc(C)cc(F)c3)cnc(N)c2-c2nc3cc(F)cc(OC)c3[nH]2)CC1` [Compound 4-10, 3-(5-fluoro-7-methoxy-1H-1,3-benzodiazol-2-yl)-5-(3-fluoro-5-methylphenyl)-4-[4-(methylamino)piperidin-1-yl]pyridin-2-amine], the pEC50 is > 8.00.

Regarding `Cc1cc(F)cc(-c2cnc(N3CCNCC3)c(-c3nc4cc(Cl)ccc4[nH]3)c2N2CCC(N)CC2)c1` [Compound 4-11, 1-[3-(5-chloro-1H-1,3-benzodiazol-2-yl)-5-(3-fluoro-5-methylphenyl)-2-(piperazin-1-yl)pyridin-4-yl]piperidin-4-amine], the pEC50 was > 8.00.
